In patent US9265771B2, “Method for treating Lyme disease” (Zoetis Services LLC, priority 2012, dated 2016):
Values joined by “and” are separate entries in the source; they are usually repeats but may differ in a detail not shown here. Identical values can stand only once.

Legend:
Type in all cases: in vivo, beagle dogs
[1] = system: B. burgdorferi outer surface protein OspF; test: Study B: fluorescent-bead-based multiplex assay, antibodies against OspF; details: for Multiplex Assay OspF: No. Dogs > Positive Threshold (# dogs > 1500): 8 dogs/group
Protocol: (§1) Thirty-two (18 male and 14 female) beagle dogs were sero-negative for Borrelia burgdorferi, not vaccinated with any Borrelia spp vaccines, and acclimated at the study facility for seven days. The study was conducted under National Research Council guidelines (1996). […] Field-caught Ixodes from the northeast USA were placed on the dogs without containment chambers for 10 days; after ticks fed to repletion, dogs were treated with two applications of an approved topical acaricide with a 30-day interval between applications.
Forty days post-challenge, and prior to antibiotic treatments, blood was collected from each dog as were two skin biopsy punch samples near tick attachment sites. Blood was collected approximately monthly post-treatment. Skin biopsies were taken near the tick attachment site on Days 48/49, 118, 146, 180, and 315. Serum antibodies to Borrelia were assayed using the IDEXX SNAP-4Dx and QC6 ELISA. In cooperation with Cornell University, serum samples were analyzed using fluorescent-bead-based multiplex assays detecting antibodies against B. burgdorferi outer surface proteins OspA, OspC, and OspF. […] The skin biopsies were collected for a polymerase chain reaction (PCR; FlaB) assay and cultured for spirochete detection. At the end of the study, blood and skin biopsies were collected and synovial tissue from the joints were harvested at necropsy.
(§2) On Day 75 and Day 89 Convenia was administered to the eight dogs in T04 (8 mg/kg bodyweight; subcutaneous injection). The other treated groups received their respective regimens daily and orally for 30 days from Days 75 to 104. […] Dogs in T01 served as infected, untreated, controls.

B. burgdorferi [2] = test: Study B: microscopic examination of joints and skin at necropsy; details: for Number of Joints with Changes as Described for Lyme disease: N = 8
Protocol: as §1
(§3) Forty days post-challenge, and prior to antibiotic treatments, blood was collected from each dog as were two skin biopsy punch samples near tick attachment sites. Blood was collected approximately monthly post-treatment. Skin biopsies were taken near the tick attachment site on Days 48/49, 118, 146, 180, and 315. Serum antibodies to Borrelia were assayed using the IDEXX SNAP-4Dx and QC6 ELISA. In cooperation with Cornell University, serum samples were analyzed using fluorescent-bead-based multiplex assays detecting antibodies against B. burgdorferi outer surface proteins OspA, OspC, and OspF. Data were expressed as median fluorescent intensities (MFI), and shown to be specific and sensitive to provide interpretative guidelines regarding infection. The skin biopsies were collected for a polymerase chain reaction (PCR; FlaB) assay and cultured for spirochete detection. At the end of the study, blood and skin biopsies were collected and synovial tissue from the joints were harvested at necropsy.
as §2, with “controls. Inter-treatment comparisons to evaluate antibiotic efficacy included clinical signs, serology, culture results and pathology.” for “controls.”
At necropsy ten joints were harvested per each dog, formalin-fixed, stained and examined microscopically. Joints included the carpus, elbow, shoulder, stifle and tarsus on both the right and left limbs. Further, a section of skin near tick attachment sites was evaluated from each dog. There were two dogs in the Convenia group (25%) with tissues showing changes as described for Lyme disease, compared to seven controls (87.5%) and three (37.5%) to four (50.0%) dogs in the other antibiotic-treated groups (Table 7). […] The Convenia group had the lowest incidence of joint changes with six affected of 80.

B. burgdorferi [3] = test: Study B: SNAP-4Dx ELISA in tick-infected dogs; details: for SNAP-4Dx Positives, Number of Dogs: N = 8/group
From the text: (§4) Three outer surface proteins (Osp) on B. burgdorferi are important for diagnosis and prevention, and are expressed by the organism in response to its local environment. […] OspF is another surface protein that is generally observed in late-stage disease. The C in […] refers to a 25-amino acid, C6 peptide in the sixth invariable region of an outer membrane lipoprotein (VIsE). Antibody against C6 is highly accurate as a serologic diagnosis of Lyme disease independent of a subject's (e.g., canine) vaccination status. Further, the generation of C6 antibodies implies an active infection with viable spirochetes. Serological methods for detecting B. burgdorfer/Lyme disease were conducted using the IDEXX qualitative SNAP-4Dx ELISA and the Quantitative C6 (Quant C6 or QC6) diagnostic kits, which are enzyme linked immunosorbent assays against the previously described 25-amino-acid C6 peptide. QC6 ELISA data, units/mL, are useful for guidance in initiating and evaluating response to therapy (See Levy S A, O'Connor T P, Hanscom J L, Shields P, et al. Quantitative measurement of a C6 antibody following antibiotic treatment of Borrelia burgdorferi antibody-positive, nonclinical dogs. Clin Vacc Immunol 2008; 15(1):115-119 and Littman M P, Goldstein R E, Labato M A, et al. ACVIM Small Animal Concensus Statement on Lyme Disease in Dogs: Diagnosis, Treatment and Prevention. J Vet Intern Med 2006; 20: 422-434).
as §1, §3
as §2, with “controls. Inter-treatment comparisons to evaluate antibiotic efficacy included clinical signs, serology, culture results and pathology.” for “controls.”

[4] = system: B. burgdorferi outer surface protein OspC; test: Study B: fluorescent-bead-based multiplex assay, antibodies against OspC; details: Day 281
Protocol: as §1
as §3, with “At the end of the study, blood and skin biopsies were collected and synovial tissue from the joints were harvested at necropsy.” left out

B. burgdorferi [5] = test: Study B: QC6 ELISA in tick-infected dogs; details: 8 dogs/group
From the text: as §4, §1, §3
as §2, with “controls. Inter-treatment comparisons to evaluate antibiotic efficacy included clinical signs, serology, culture results and pathology.” for “controls.”

[6] = joints, skin, 8 dogs/group, necropsy

CC1(C)S[C@@H]2[C@H](NC(=O)[C@H](N)c3ccc(O)cc3)C(=O)N2[C@H]1C(=O)O [amoxicillin]
Multiplex Assay OspF: MFI Mean ([1]; Day 48 (pre-treatment)): 1083.75 MFI | Multiplex Assay OspF: No. Dogs > Positive Threshold (# dogs > 1500) ([1]; Day 48 (pre-treatment)): 2 | Multiplex Assay OspF: No. Dogs > Positive Threshold (# dogs > 1500) ([1]; Day 111): three and 3 | Multiplex Assay OspF: MFI Mean ([1]; Day 145): 458.13 MFI | Multiplex Assay OspF: No. Dogs > Positive Threshold (# dogs > 1500) ([1]; Day 145): 0 | Multiplex Assay OspF: MFI Mean ([1]; Day 179): 327.88 MFI | Multiplex Assay OspF: No. Dogs > Positive Threshold (# dogs > 1500) ([1]; Day 179): 0 | Multiplex Assay OspF: MFI Mean ([1]; Day 221): 269.63 MFI | Multiplex Assay OspF: No. Dogs > Positive Threshold (# dogs > 1500) ([1]; Day 221): 0 | Multiplex Assay OspF: MFI Mean ([1]; Day 251): 288.63 MFI | Multiplex Assay OspF: No. Dogs > Positive Threshold (# dogs > 1500) ([1]; Day 251): 0 | Multiplex Assay OspF: MFI Mean ([1]; Day 281): 288.88 MFI | Multiplex Assay OspF: No. Dogs > Positive Threshold (# dogs > 1500) ([1]; Day 281): 0 | Multiplex Assay OspF: MFI Mean ([1]; Day 314): 278.25 MFI | Multiplex Assay OspF: No. Dogs > Positive Threshold (# dogs > 1500) ([1]; Day 314): 0 | Multiplex Assay OspF: MFI Mean ([1]; Day −15 (pre-infection)): 133.38 MFI | Multiplex Assay OspF: No. Dogs > Positive Threshold (# dogs > 1500) ([1]; Day −15 (pre-infection)): 0 | Antibody-OspF status of dogs ([1]; after Day 111): all dogs negative thereafter | Number of Joints with Changes as Described for Lyme disease, Cumulative (B. burgdorferi [2]; 80 total/group): 12 | Number of Joints with Changes as Described for Lyme disease (B. burgdorferi [2]; Carpus L): 2 | Number of Joints with Changes as Described for Lyme disease (B. burgdorferi [2]; Carpus R): 2 | Number of Joints with Changes as Described for Lyme disease (B. burgdorferi [2]; Elbow L): 1 | Number of Joints with Changes as Described for Lyme disease (B. burgdorferi [2]; Elbow R): 1 | Number of Joints with Changes as Described for Lyme disease (B. burgdorferi [2]; Shoulder L): 0 | Number of Joints with Changes as Described for Lyme disease (B. burgdorferi [2]; Shoulder R): 1 | Number of Joints with Changes as Described for Lyme disease (B. burgdorferi [2]; Stifle L): 1 | Number of Joints with Changes as Described for Lyme disease (B. burgdorferi [2]; Stifle R): 2 | Number of Joints with Changes as Described for Lyme disease (B. burgdorferi [2]; Tarsus L): 1 | Number of Joints with Changes as Described for Lyme disease (B. burgdorferi [2]; Tarsus R): 1 | No Tissue Changes, # Dogs (B. burgdorferi [2]; [6]): 4 | No Tissue Changes, % (B. burgdorferi [2]; [6]): 50% | Tissue Changes Described for Lyme Disease, # Dogs (B. burgdorferi [2]; [6]): 4 | Tissue Changes Described for Lyme Disease, % (B. burgdorferi [2]; [6]): 50% | SNAP-4Dx Positives, Number of Dogs (B. burgdorferi [3]; Day 48 (pre-treatment; antibiotics from Day 75)): 5 | SNAP-4Dx Positives, Number of Dogs (B. burgdorferi [3]; Day 111): 7 | SNAP-4Dx Positives, Number of Dogs (B. burgdorferi [3]; Day 145): 3 | SNAP-4Dx Positives, Number of Dogs (B. burgdorferi [3]; Day 179): 2 | SNAP-4Dx Positives, Number of Dogs (B. burgdorferi [3]; Day 221): 0 | SNAP-4Dx Positives, Number of Dogs (B. burgdorferi [3]; Day 251): 0 | SNAP-4Dx Positives, Number of Dogs (B. burgdorferi [3]; Day 281): 0 | SNAP-4Dx Positives, Number of Dogs (B. burgdorferi [3]; Day 315): 0 | SNAP-4Dx Positives, Number of Dogs (B. burgdorferi [3]; Day −15 (pre-infection)): 0 | SNAP-4Dx positive dogs (B. burgdorferi [3]; rest of the study after Day 179): none positive | Number of dogs above infected threshold (antibody-OspC) [4]: one | Dogs Sero-converted to B. burgdorferi per QC6 ELISA (≧30 U/mL), (%) (B. burgdorferi [5]; Day 48 (pre-treatment)): 100.0% | Number of Dogs Sero-converted to B. burgdorferi per QC6 ELISA (≧30 U/mL), No. (B. burgdorferi [5]; Day 48 (pre-treatment)): 8 | Dogs Sero-converted to B. burgdorferi per QC6 ELISA (≧30 U/mL), (%) (B. burgdorferi [5]; Day 111): 75.0% | Number of Dogs Sero-converted to B. burgdorferi per QC6 ELISA (≧30 U/mL), No. (B. burgdorferi [5]; Day 111): 6 | Dogs Sero-converted to B. burgdorferi per QC6 ELISA (≧30 U/mL), (%) (B. burgdorferi [5]; Day 145): 0.0% | Number of Dogs Sero-converted to B. burgdorferi per QC6 ELISA (≧30 U/mL), No. (B. burgdorferi [5]; Day 145): 0 | Dogs Sero-converted to B. burgdorferi per QC6 ELISA (≧30 U/mL), (%) (B. burgdorferi [5]; Day 179): 0.0% | Number of Dogs Sero-converted to B. burgdorferi per QC6 ELISA (≧30 U/mL), No. (B. burgdorferi [5]; Day 179): 0 | Dogs Sero-converted to B. burgdorferi per QC6 ELISA (≧30 U/mL), (%) (B. burgdorferi [5]; Day 221): 0.0% | Number of Dogs Sero-converted to B. burgdorferi per QC6 ELISA (≧30 U/mL), No. (B. burgdorferi [5]; Day 221): 0 | Dogs Sero-converted to B. burgdorferi per QC6 ELISA (≧30 U/mL), (%) (B. burgdorferi [5]; Day 251): 0.0% | Number of Dogs Sero-converted to B. burgdorferi per QC6 ELISA (≧30 U/mL), No. (B. burgdorferi [5]; Day 251): 0 | Dogs Sero-converted to B. burgdorferi per QC6 ELISA (≧30 U/mL), (%) (B. burgdorferi [5]; Day 281): 0.0% | Number of Dogs Sero-converted to B. burgdorferi per QC6 ELISA (≧30 U/mL), No. (B. burgdorferi [5]; Day 281): 0 | Dogs Sero-converted to B. burgdorferi per QC6 ELISA (≧30 U/mL), (%) (B. burgdorferi [5]; Day 314): 0.0% | Number of Dogs Sero-converted to B. burgdorferi per QC6 ELISA (≧30 U/mL), No. (B. burgdorferi [5]; Day 314): 0
